PubChem BioAssay (NCI)
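The concentration for 50% growth inhibition is given as GI50. Definition used: TGI = concentration required for complete inhibition of growth.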

Columns and labels:
Assay in all cases: growth of human tumour cells (NCI), 384-well format
TK-10 renal = test system: TK-10 renal
SNB-19 CNS = test system: SNB-19 CNS
SF-268 CNS = test system: SF-268 CNS
MOLT-4 leukemia = test system: MOLT-4 leukemia
NCI-H23 lung = test system: NCI-H23 lung
CCRF-CEM leukemia = test system: CCRF-CEM leukemia
A498 renal = test system: A498 renal
UACC-62 melanoma = test system: UACC-62 melanoma
MCF7 breast = test system: MCF7 breast
T-47D breast = test system: T-47D breast
HL-60(TB) leukemia = test system: HL-60(TB) leukemia
MDA-MB-231 breast = test system: MDA-MB-231 breast
OVCAR-4 ovarian = test system: OVCAR-4 ovarian
SK-OV-3 ovarian = test system: SK-OV-3 ovarian
SN12C renal = test system: SN12C renal
OVCAR-8 ovarian = test system: OVCAR-8 ovarian
M14 melanoma = test system: M14 melanoma
UO-31 renal = test system: UO-31 renal
HOP-92 NSCLC = test system: HOP-92 NSCLC
KM12 colon = test system: KM12 colon
SNB-75 CNS = test system: SNB-75 CNS
DU-145 prostate = test system: DU-145 prostate
SF-295 CNS = test system: SF-295 CNS
OVCAR-5 ovarian = test system: OVCAR-5 ovarian
HS 578T breast = test system: HS 578T breast
NCI-H460 NSCLC = test system: NCI-H460 NSCLC
SF-539 CNS = test system: SF-539 CNS
SR leukemia = test system: SR leukemia

`CCN1Cc2c(ccc(F)c2C#N)O[C@@H](C)CNC(=O)c2c(N)nn3ccc1nc23` showed a GI50 (TK-10 renal) of 0.868 µM, a TGI (TK-10 renal) of 6.62 µM and a GI50 (SNB-19 CNS) of 2.84 µM. It also gave a TGI (SNB-19 CNS) of 12.7 µM, a GI50 (SF-268 CNS) of 1.76 µM and a TGI (SF-268 CNS) of 11.9 µM. The GI50 (MOLT-4 leukemia) was 0.198 µM, the TGI (MOLT-4 leukemia) was 0.478 µM and the GI50 (NCI-H23 lung) was 0.264 µM. It also gave a TGI (NCI-H23 lung) of 3.48 µM, a GI50 (CCRF-CEM leukemia) of 0.566 µM and a TGI (CCRF-CEM leukemia) of 10.8 µM. For the same compound, the GI50 (A498 renal) was 0.379 µM, the TGI (A498 renal) was 7.56 µM and the GI50 (UACC-62 melanoma) was 0.454 µM. For the same compound, the TGI (UACC-62 melanoma) was 2.52 µM, the GI50 (MCF7 breast) was 3.16 µM and the TGI (MCF7 breast) was 19.4 µM. For the same compound, the GI50 (T-47D breast) was 0.946 µM, the TGI (T-47D breast) was 12.3 µM and the GI50 (HL-60(TB) leukemia) was 1.14 µM. The TGI (HL-60(TB) leukemia) was 3.01 µM, the GI50 (MDA-MB-231 breast) was 0.438 µM and the TGI (MDA-MB-231 breast) was 1.97 µM. The GI50 (OVCAR-4 ovarian) was 2.4 µM, the TGI (OVCAR-4 ovarian) was 17.3 µM and the GI50 (SK-OV-3 ovarian) was 0.282 µM. The TGI (SK-OV-3 ovarian) was 2.36 µM, the GI50 (SN12C renal) was 0.613 µM and the TGI (SN12C renal) was 4.69 µM. For the same compound, the GI50 (OVCAR-8 ovarian) was 2.74 µM, the TGI (OVCAR-8 ovarian) was 13.8 µM and the GI50 (M14 melanoma) was 0.364 µM. It also gave a TGI (M14 melanoma) of 1.85 µM, a GI50 (UO-31 renal) of 2.65 µM and a TGI (UO-31 renal) of 16.3 µM. For the same compound, the GI50 (HOP-92 NSCLC) was 0.362 µM, the TGI (HOP-92 NSCLC) was 1.85 µM and the TGI (KM12 colon) was 14.7 µM. For the same compound, the GI50 (SNB-75 CNS) was 0.892 µM, the TGI (SNB-75 CNS) was 5.37 µM and the GI50 (DU-145 prostate) was 0.465 µM. The TGI (DU-145 prostate) was 2.88 µM, the GI50 (SF-295 CNS) was 0.153 µM and the TGI (SF-295 CNS) was 3.02 µM. The GI50 (OVCAR-5 ovarian) was 0.735 µM, the TGI (OVCAR-5 ovarian) was 9.02 µM and the GI50 (HS 578T breast) was 0.381 µM. It also gave a TGI (HS 578T breast) of 1.95 µM, a GI50 (NCI-H460 NSCLC) of 0.426 µM and a TGI (NCI-H460 NSCLC) of 11.4 µM. The GI50 (SF-539 CNS) was 3.07 µM, the TGI (SF-539 CNS) was 13.8 µM and the GI50 (SR leukemia) was 0.31 µM. For the same compound, the TGI (SR leukemia) was 1.02 µM.
